Laboratory results from paper PMC13426457, “Cryo-EM structures of apo, agonist- and antagonist-bound heteromeric kainate receptors” (Science Advances, 2026).

Biological target: T1, GluK2 (Rattus norvegicus, UniProt P42260, A518T/I567V/C576V/C595S)
T1 construct: gene Grik2
T1 sequence (P42260 32-908 A518T/I567V/C576V/C595S): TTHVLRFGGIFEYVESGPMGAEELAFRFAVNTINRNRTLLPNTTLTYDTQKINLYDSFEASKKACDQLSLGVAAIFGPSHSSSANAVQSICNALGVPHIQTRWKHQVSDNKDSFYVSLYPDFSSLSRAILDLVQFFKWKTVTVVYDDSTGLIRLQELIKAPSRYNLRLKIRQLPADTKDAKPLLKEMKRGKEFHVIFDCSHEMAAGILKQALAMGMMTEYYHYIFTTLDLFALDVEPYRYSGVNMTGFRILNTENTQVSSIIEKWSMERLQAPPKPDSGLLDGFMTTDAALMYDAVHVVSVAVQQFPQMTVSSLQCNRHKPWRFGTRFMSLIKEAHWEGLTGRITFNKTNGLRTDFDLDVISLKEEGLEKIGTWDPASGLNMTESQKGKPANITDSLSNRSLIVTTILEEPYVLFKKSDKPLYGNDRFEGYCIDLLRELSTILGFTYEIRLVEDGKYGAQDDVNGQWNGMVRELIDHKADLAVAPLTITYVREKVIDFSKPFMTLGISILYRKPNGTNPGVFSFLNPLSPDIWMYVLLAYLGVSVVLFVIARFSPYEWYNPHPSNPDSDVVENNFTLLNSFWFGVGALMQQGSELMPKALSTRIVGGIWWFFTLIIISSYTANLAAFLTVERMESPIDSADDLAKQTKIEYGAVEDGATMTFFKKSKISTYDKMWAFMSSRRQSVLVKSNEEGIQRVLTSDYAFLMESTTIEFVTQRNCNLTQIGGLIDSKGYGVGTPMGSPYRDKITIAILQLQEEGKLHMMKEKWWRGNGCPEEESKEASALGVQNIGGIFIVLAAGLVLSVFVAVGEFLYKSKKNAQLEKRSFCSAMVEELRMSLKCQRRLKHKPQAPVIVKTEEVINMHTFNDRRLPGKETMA
T1 sequence (Q63273 with tags, fused parts or gaps T501A/C559V/C578S/C619I/C813A partner): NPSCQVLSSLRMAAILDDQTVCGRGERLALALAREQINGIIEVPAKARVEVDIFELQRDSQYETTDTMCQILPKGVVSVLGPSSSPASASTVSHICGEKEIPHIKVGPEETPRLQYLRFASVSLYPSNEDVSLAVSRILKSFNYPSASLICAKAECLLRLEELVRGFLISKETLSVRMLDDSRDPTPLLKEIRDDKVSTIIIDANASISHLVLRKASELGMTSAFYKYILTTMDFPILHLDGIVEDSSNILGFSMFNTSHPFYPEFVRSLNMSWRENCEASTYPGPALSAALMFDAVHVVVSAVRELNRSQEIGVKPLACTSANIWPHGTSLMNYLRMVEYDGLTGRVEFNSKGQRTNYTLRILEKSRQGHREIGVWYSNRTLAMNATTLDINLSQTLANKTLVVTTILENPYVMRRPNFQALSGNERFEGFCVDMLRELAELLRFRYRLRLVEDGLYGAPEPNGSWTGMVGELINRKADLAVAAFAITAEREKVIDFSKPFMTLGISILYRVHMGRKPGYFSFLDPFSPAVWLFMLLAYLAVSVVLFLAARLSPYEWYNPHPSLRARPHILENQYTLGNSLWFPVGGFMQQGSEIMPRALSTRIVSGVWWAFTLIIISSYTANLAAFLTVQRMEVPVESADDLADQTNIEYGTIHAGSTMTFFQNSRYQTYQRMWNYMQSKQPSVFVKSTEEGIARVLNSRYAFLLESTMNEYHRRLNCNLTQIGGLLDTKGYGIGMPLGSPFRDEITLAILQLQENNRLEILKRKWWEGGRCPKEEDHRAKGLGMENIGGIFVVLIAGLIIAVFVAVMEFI

## Cc1cn(C[C@H](N)C(=O)O)c(=O)n(Cc2ccsc2C(=O)O)c1=O [UBP310, (S)-1-(2-amino-2-carboxyethyl)-3-(2-carboxythiophene-3-yl-methyl)-5-methylpyrimidine-2,4-dione]
  % current reduction at 0.5 mM: 56.2 ± 21.0 % current reduction at 0.5 mM
